Source: patent publication US20230381170A1, “METHOD FOR TREATING ALS/FTD THROUGH DEGRADATION OF RNA REPEAT EXPANSION” (University of Florida Research Foundation, Incorporated, priority 2020, published 2023)

Columns and labels:
r(G4C2)8 = experiment: RIBOTAC cleavage of r(G4C2)8 in vitro, FRET assay with RNase L; assay type: biochemical; details: r(G4C2)8 labeled Cy5/Cy3
Experimental: RIBOTAC Cleavage of […] in vitro: Gel Analysis. A model of r(G4C2)^exp, r(G4C2)8 was radioactively labeled at its 5′ end and purified on a denaturing 15% polyacrylamide gel as previously described (12, 57). Then, 25 nM of labeled RNA was folded by heating at 95° C. for 5 min in 1× Rnase L buffer (25 mM Tris-HCl, pH7.4, and 100 mM NaCl) and allowed to slowly cool to room temperature. To the folded RNA was added 2-Mercaptoethanol (7 mM final concentration), ATP (50 µM final concentration), and MgCl2 (10 mM final concentration). Compound was added, and the samples were incubated for 15 min at room temperature. Next, Rnase L was added to a final concentration of 25 or 50 nM, and the samples were incubated at 37° C. (1 h or overnight). Fragments were separated on a denaturing 15% polyacrylamide gel, imaged by phosphorimaging with a Typhoon FLA 9500, and quantified with BioRad's QuantityOne software. All studies were performed in duplicate.
RIBOTAC Cleavage of r(G4C2)8 in vitro: FRET Assay. A FRET assay was developed to monitor RIBOTAC-induced cleavage of r(G4C2)8 by Rnase L. This assay uses r(G4C2)8 labeled with Cy5 and Cy3, at the 5′ and 3′ end, respectively (Dharmacon). […] Fluorescence was measured on a Molecular Devices SpectraMax M5 plate reader (Cy3, Ex.: 554 nm; Em.: 568 nm; Cy5, Ex.: 649 nm, Em.: 666 nm; FRET, Ex.: 554 nm, Em.: 666 nm). […]

Human Topoisomerase II = biological target: T1, Human Topoisomerase II (Homo sapiens, UniProt P11388); experiment: Topoisomerase assay; assay type: biochemical
T1 construct: purchased TopoGen
T1 sequence (P11388 whole entry): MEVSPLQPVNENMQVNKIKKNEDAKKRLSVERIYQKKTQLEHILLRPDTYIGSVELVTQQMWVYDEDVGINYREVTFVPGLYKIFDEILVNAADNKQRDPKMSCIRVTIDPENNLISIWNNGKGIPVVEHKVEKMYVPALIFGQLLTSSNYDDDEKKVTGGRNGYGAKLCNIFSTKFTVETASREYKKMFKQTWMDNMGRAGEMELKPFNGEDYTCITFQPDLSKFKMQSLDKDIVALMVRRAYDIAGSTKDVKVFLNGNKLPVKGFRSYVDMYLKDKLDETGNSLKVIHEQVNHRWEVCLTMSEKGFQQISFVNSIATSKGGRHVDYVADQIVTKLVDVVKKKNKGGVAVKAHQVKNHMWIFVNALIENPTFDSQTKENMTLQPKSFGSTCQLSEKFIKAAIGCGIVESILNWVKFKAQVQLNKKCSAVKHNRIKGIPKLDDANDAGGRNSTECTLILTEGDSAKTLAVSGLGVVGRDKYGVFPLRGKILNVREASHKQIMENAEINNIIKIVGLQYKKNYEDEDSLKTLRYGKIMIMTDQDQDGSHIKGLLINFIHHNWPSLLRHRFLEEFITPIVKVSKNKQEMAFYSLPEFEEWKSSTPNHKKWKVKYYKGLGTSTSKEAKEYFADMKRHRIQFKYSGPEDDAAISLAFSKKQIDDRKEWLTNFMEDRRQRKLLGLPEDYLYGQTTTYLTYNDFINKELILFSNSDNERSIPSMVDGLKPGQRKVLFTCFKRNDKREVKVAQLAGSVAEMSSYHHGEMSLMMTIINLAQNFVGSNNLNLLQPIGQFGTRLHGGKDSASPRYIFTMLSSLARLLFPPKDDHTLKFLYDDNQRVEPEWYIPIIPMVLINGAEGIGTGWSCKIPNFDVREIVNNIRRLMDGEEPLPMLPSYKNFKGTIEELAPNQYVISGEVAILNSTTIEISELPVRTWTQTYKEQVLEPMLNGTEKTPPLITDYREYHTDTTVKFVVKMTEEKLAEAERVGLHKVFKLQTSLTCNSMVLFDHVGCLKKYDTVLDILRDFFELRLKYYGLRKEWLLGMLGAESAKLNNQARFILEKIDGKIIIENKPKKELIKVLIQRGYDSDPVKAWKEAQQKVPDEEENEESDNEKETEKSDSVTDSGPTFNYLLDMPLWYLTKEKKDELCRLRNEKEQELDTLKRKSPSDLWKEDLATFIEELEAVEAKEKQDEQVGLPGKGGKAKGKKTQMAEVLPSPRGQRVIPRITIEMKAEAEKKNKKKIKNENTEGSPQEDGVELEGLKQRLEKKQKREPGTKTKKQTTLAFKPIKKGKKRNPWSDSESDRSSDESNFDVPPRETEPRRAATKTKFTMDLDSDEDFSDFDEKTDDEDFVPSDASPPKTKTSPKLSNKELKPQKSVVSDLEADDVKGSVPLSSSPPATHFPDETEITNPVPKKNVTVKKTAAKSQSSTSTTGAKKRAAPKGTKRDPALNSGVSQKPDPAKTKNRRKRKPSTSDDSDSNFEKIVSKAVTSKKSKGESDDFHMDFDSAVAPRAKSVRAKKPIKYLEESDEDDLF
Experimental: Topoisomerase Assay. Topoisomerase inhibition was assessed in vitro using the TopoGen Human Topoisomerase II Assay Kit per manufacturer's recommended protocol. Samples were run on a 1% agarose gel post-stained with ethidium bromide. Topoisomerase inhibition was quantified as a percentage of linearized DNA compared to the positive control compound VP-16 supplied.

(G4C2)66-No ATG-GFP mRNA = experiment: Polysome profiling in HEK293T cells; assay type: cell-based, human; details: 200 nM
Experimental: Polysome Profiling. Polysome profiling studies were completed similarly to previously described methods (12, 30) Yang et al., 2015). Briefly, 100 mm dishes were plated with ˜3.5×10^6 HEK293T cells and batch-transfected for 5 h with 2.5 μg (G4C2)66-No ATG-GFP using Lipofectamine 3000 reagent according to manufacturer protocol. Then, cells were collected and plated overnight in 100 mm dishes with ˜2.5×10^6 HEK293T cells and treated with vehicle (DMSO, 0.5% final concentration) or 3 (200 nM). Upon 24 h treatment, cells were treated with cycloheximide (CHX, 0.1 mg/mL) and incubated for 5 min at 37° C. The medium was removed, and cells were washed by 2×7.5 mL ice cold DPBS supplemented with 0.1 mg/mL CHX. Cells were then lysed with 250 μL of ice-cold Cell Lysis Buffer [10 mM NaCl, 10 mM MgCl2, 10 mM Tris, pH 7.5, 1% Triton X-100, 1% sodium deoxycholate, 1 mM DTT supplemented with […] cycloheximide, and 0.2 U/μL RNAsin (Promega)]. The lysate obtained from 3×100 mm dishes were combined (˜500 μL final volume) and transferred to an Eppendorf tube, passed through a 21G needle several times and centrifuged for 5 min at 13,200 rpm and 4° C. The supernatant was transferred to a new tube and stored at −80° C. until further use. Cell lysates were then loaded on 10-50% sucrose gradients (prepared in 20 mM HEPES, pH 7.4, 100 mM KCl, 5 mM MgCl2, 3 mM DTT, and 0.1 mg/mL CHX) and separated at 40000 rpm for 2 h at 4° C. […] The levels of (G4C2)66-No ATG-GFP mRNA in each fraction were measured by qPCR as described above with primers specific for GFP (non-canonical translation), GAPDH, respectively (canonical translation) (Table 1). Data from vehicle- and compound-treated samples were normalized as follows: triplicate Ct values were averaged and ΔCt values were calculated; ΔΔCt values were afforded by comparing treated to untreated ΔCt values. […]

| FRET signal upon addition of compound and Rnase L (r(G4C2)8) | topoisomerase activity in vitro (Human Topoisomerase II) | Structure (SMILES) | increase of transcript abundance in low-molecular-weight (LMW) fractions ((G4C2)66-No ATG-GFP mRNA) [%] | polysome loading of GAPDH (control transcript) ((G4C2)66-No ATG-GFP mRNA) | reduction of transcript loaded into high-molecular-weight (HMW) polysome fractions ((G4C2)66-No ATG-GFP mRNA) [%] |
| --- | --- | --- | --- | --- | --- |
| dose dependently decreased | – | CCOC(=O)C1=C(Nc2ccccc2)S/C(=C\c2ccc(OCCOCCOCCOCCNC(=O)CCC(=O)N(CCOCCOCCOc3ccc4[nH]c5c(C)c6ccncc6c(C)c5c4c3)CCOCCOCCOc3ccc4[nH]c5c(C)c6ccncc6c(C)c5c4c3)c(O)c2)C1=O [Compound 7] | – | – | – |
| – | did not inhibit | Cc1c2ccncc2c(C)c2c1[nH]c1ccc(OCCOCCOCCNCCOCCOCCOc3ccc4[nH]c5c(C)c6ccncc6c(C)c5c4c3)cc12 [Compound 3] | 17±1 | no effect | 22±2 |
